Measurements reported in the supplement of paper PMC11061612.

How the values were obtained:
[1] = test system: OCI-M1 (Acute Myeloid Leukemia); assay: Bliss excess, mean over the matrix (fraction); higher = more synergy
Summary of the method: (§1)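 Bliss excess equals the observed combination effect minus the expected value EA + EB − EA·EB, where EA and EB are the effects of each agent alone. Combination Emax is the second-highest inhibition within the matrix. Inhibition was scaled from CellTiter-Glo 2.0 luminescence, with 0 set by vehicle wells and 1 by blank wells, after 72 hours of two-drug dosing of cells plated in 1536-well plates.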

[2] = test system: HT-3 (Cervical Carcinoma); assay: as above
Summary of the method: as §1

[3] = test system: BC-1 (B-Cell Non-Hodgkin's Lymphoma); assay: as above
Summary of the method: as §1

C32 (Melanoma) [4] = assay: as above
Summary of the method: as §1

[5] = test system: KNS-62 (Squamous Cell Lung Carcinoma); assay: as above
Summary of the method: as §1

A375 (Melanoma) [6] = assay: as above
Summary of the method: as §1

SK-N-DZ (Neuroblastoma) = assay: as above
Summary of the method: as §1

[7] = test system: NCI-H2023 (Non-Small Cell Lung Carcinoma); assay: as above
Summary of the method: as §1

[8] = test system: ATN-1 (T-Lymphoblastic Leukemia); assay: as above
Summary of the method: as §1

[9] = test system: NCI-H1435 (Non-Small Cell Lung Carcinoma); assay: as above
Summary of the method: as §1

[10] = test system: SBC-5 (Small Cell Lung Carcinoma); assay: as above
Summary of the method: as §1

[11] = test system: IGROV-1 (Ovarian Carcinoma); assay: as above
Summary of the method: as §1

[12] = test system: SNU-1 (Gastric Carcinoma); assay: combination Emax (second highest fraction inhibited in the dose matrix, 72 h); higher = more inhibition; extreme values may be limits of the assay
Summary of the method: as §1

[13] = test system: RPMI-8402 (T-Lymphoblastic Leukemia); assay: as above
Summary of the method: as §1

[14] = test system: NCI-H2009 (Lung Adenocarcinoma); assay: as above
Summary of the method: as §1

[15] = test system: SUP-HD1 (Hodgkin's Lymphoma); assay: as above
Summary of the method: as §1

C32 (Melanoma) [16] = assay: as above
Summary of the method: as §1

MG-63 (Osteosarcoma) = assay: as above
Summary of the method: as §1

A375 (Melanoma) [17] = assay: as above
Summary of the method: as §1

HT-144 (Melanoma) = assay: as above
Summary of the method: as §1

CC1(C)CCC(CN2CCN(c3ccc(C(=O)NS(=O)(=O)c4ccc(NCC5CCOCC5)c([N+](=O)[O-])c4)c(Oc4cnc5[nH]ccc5c4)c3)CC2)=C(c2ccc(Cl)cc2)C1 [Venetoclax] + CCN(CCO)CCCOc1ccc2c(Nc3cc(CC(=O)Nc4cccc(F)c4)[nH]n3)ncnc2c1 [AZD2811] (first compound max 1 µM, 7x7, partner max 1 µM)
Bliss excess [1]: 0.0061
Bliss excess [2]: -0.0129
Bliss excess [3]: 0.111
Bliss excess (C32 (Melanoma) [4]): -0.0014
Bliss excess [5]: 0.0131
Bliss excess (A375 (Melanoma) [6]): -0.0095
Bliss excess (SK-N-DZ (Neuroblastoma)): 0.0269
Bliss excess [7]: -0.067
Bliss excess [8]: 0.0113
Bliss excess [9]: 0.0104
Bliss excess [10]: 0.0161
Bliss excess [11]: -0.0091
combination Emax [12]: 0.297
combination Emax [13]: 0.735
combination Emax [14]: 0.236
combination Emax [15]: 0.922
combination Emax (C32 (Melanoma) [16]): 0.385
combination Emax (MG-63 (Osteosarcoma)): 0.23
combination Emax (A375 (Melanoma) [17]): 0.371
combination Emax (HT-144 (Melanoma)): 0.266

CC1(C)CCC(CN2CCN(c3ccc(C(=O)NS(=O)(=O)c4ccc(NCC5CCOCC5)c([N+](=O)[O-])c4)c(Oc4cnc5[nH]ccc5c4)c3)CC2)=C(c2ccc(Cl)cc2)C1 [Venetoclax] + Cn1cnc2c(F)c(Nc3ccc(Br)cc3Cl)c(C(=O)NOCCO)cc21 [Selumetinib] (first compound max 1 µM, 7x7, partner max 3 µM)
Bliss excess [1]: -0.0203
Bliss excess [2]: -0.0218
Bliss excess [3]: 0.0211
Bliss excess (C32 (Melanoma) [4]): -0.0278
Bliss excess [5]: -0.047
Bliss excess (A375 (Melanoma) [6]): -0.0437
Bliss excess (SK-N-DZ (Neuroblastoma)): -0.0156
Bliss excess [7]: -0.0489
Bliss excess [8]: -0.0324
Bliss excess [9]: 0.0021
Bliss excess [10]: -0.0096
Bliss excess [11]: -0.0068
combination Emax [12]: 0.221
combination Emax [13]: 0.084
combination Emax [14]: 0.184
combination Emax [15]: 0.809
combination Emax (C32 (Melanoma) [16]): 0.941
combination Emax (MG-63 (Osteosarcoma)): 0.148
combination Emax (A375 (Melanoma) [17]): 0.686
combination Emax (HT-144 (Melanoma)): 0.654

COc1cccc(OCCCN)c1-c1cc(Nc2cnc(C#N)cn2)n[nH]1 [Prexasertib] + CCc1c2c(nc3ccc(O)cc13)-c1cc3c(c(=O)n1C2)COC(=O)[C@]3(O)CC [SN-38] (first compound max 1 µM, 7x7, partner max 0.3 µM)
Bliss excess [1]: -0.0042
Bliss excess [2]: 0.0221
Bliss excess [3]: -0.0226
Bliss excess (C32 (Melanoma) [4]): -0.126
Bliss excess [5]: -0.0385
Bliss excess (A375 (Melanoma) [6]): -0.0224
Bliss excess (SK-N-DZ (Neuroblastoma)): 0.0205
Bliss excess [7]: -0.0527
Bliss excess [8]: 0.0005
Bliss excess [9]: 0.0171
Bliss excess [10]: 0.0007
Bliss excess [11]: -0.0131
combination Emax [12]: 0.953
combination Emax [13]: 1
combination Emax [14]: 0.886
combination Emax [15]: 0.954
combination Emax (C32 (Melanoma) [16]): 0.714
combination Emax (MG-63 (Osteosarcoma)): 0.964
combination Emax (A375 (Melanoma) [17]): 0.962
combination Emax (HT-144 (Melanoma)): 0.912

CS(=O)(=O)CCNCc1ccc(-c2ccc3ncnc(Nc4ccc(OCc5cccc(F)c5)c(Cl)c4)c3c2)o1 [Lapatinib] + NC1(c2ccc(-c3nc4ccn5c(=O)[nH]nc5c4cc3-c3ccccc3)cc2)CCC1 [MK-2206] (first compound max 10 µM, 7x7, partner max 10 µM)
Bliss excess [1]: 0.0217
Bliss excess [3]: 0.0584
Bliss excess (C32 (Melanoma) [4]): 0.0188
Bliss excess [5]: 0.0408
Bliss excess (A375 (Melanoma) [6]): -0.0031
Bliss excess [7]: 0.0246
Bliss excess [9]: 0.0601
Bliss excess [10]: -0.0051
combination Emax [13]: 1
combination Emax [14]: 0.431
combination Emax (C32 (Melanoma) [16]): 0.635
combination Emax (MG-63 (Osteosarcoma)): 0.924
combination Emax (A375 (Melanoma) [17]): 0.89

CC(=O)c1c(C)c2cnc(Nc3ccc(N4CCNCC4)cn3)nc2n(C2CCCC2)c1=O [Palbociclib] + CN(CC[C@H](CSC1=CC=CC=C1)NC2=C(C=C(C=C2)S(=O)(=O)NC(=O)C3=CC=C(C=C3)N4CCC(CC4)[C@H](C5=CC=CC=C5C6=CC=C(C=C6)Cl)O)S(=O)(=O)C(F)(F)F)CCO [AZD4320] (first compound max 10 µM, 7x7, partner max 1 µM)
Bliss excess [1]: -0.014
Bliss excess [2]: -0.0431
Bliss excess (C32 (Melanoma) [4]): -0.0713
Bliss excess (A375 (Melanoma) [6]): -0.0569
Bliss excess (SK-N-DZ (Neuroblastoma)): 0.0814
Bliss excess [8]: -0.0253
Bliss excess [10]: -0.0715
Bliss excess [11]: -0.0143
combination Emax [12]: 0.831
combination Emax [15]: 0.946
combination Emax (C32 (Melanoma) [16]): 0.209
combination Emax (A375 (Melanoma) [17]): 0.373
combination Emax (HT-144 (Melanoma)): 0.753

COc1nnc2ccc(N3CCC(c4ccc(OCCN5CCN(C)C(=O)[C@H]5C)cc4)CC3)nn12 [AZD5153] + CN(CC[C@H](CSC1=CC=CC=C1)NC2=C(C=C(C=C2)S(=O)(=O)NC(=O)C3=CC=C(C=C3)N4CCC(CC4)[C@H](C5=CC=CC=C5C6=CC=C(C=C6)Cl)O)S(=O)(=O)C(F)(F)F)CCO [AZD4320] (first compound max 1 µM, 7x7, partner max 1 µM)
Bliss excess [1]: -0.0095
Bliss excess [2]: 0.0347
Bliss excess (C32 (Melanoma) [4]): 0.0176
Bliss excess (A375 (Melanoma) [6]): 0.0183
Bliss excess (SK-N-DZ (Neuroblastoma)): -0.0212
Bliss excess [8]: -0.0165
Bliss excess [10]: -0.0012
Bliss excess [11]: 0.0077
combination Emax [12]: 0.8
combination Emax [15]: 0.988
combination Emax (C32 (Melanoma) [16]): 0.444
combination Emax (A375 (Melanoma) [17]): 0.476
combination Emax (HT-144 (Melanoma)): 0.454

CCc1c2c(nc3ccc(O)cc13)-c1cc3c(c(=O)n1C2)COC(=O)[C@]3(O)CC [SN-38] + O=C(c1cc(Cc2n[nH]c(=O)c3ccccc23)ccc1F)N1CCN(C(=O)C2CC2)CC1 [Olaparib] (first compound max 0.3 µM, 7x7, partner max 10 µM)
Bliss excess [2]: 0.0669
Bliss excess [3]: 0.0369
Bliss excess (C32 (Melanoma) [4]): 0.117
Bliss excess [5]: 0.0497
Bliss excess (A375 (Melanoma) [6]): 0.0588
Bliss excess [7]: 0.0986
Bliss excess [8]: 0.0907
Bliss excess [9]: 0.0243
combination Emax [12]: 0.926
combination Emax [13]: 1
combination Emax [14]: 0.442
combination Emax [15]: 0.895
combination Emax (C32 (Melanoma) [16]): 0.664
combination Emax (MG-63 (Osteosarcoma)): 0.896
combination Emax (A375 (Melanoma) [17]): 0.949
